# In EP0325279A1, “Dehydrocholecalciferol derivatives” (F. HOFFMANN-LA ROCHE AG, priority 1988, dated 1989):
# “And” between values parts separate entries of the source, which are not always exact repeats. Identical values can stand only once.
# Experiments:
# Assay type in all cases: cell-based
# [1] = system: menschlichen Keratinocyten; test: Number of human keratinocytes and cornified squamous cells formed in presence of compound
# Source text: (§1) Die Aktivität der Verbindungen der Formel I als Mittel für die Behandlung von hyperproliferativen Hautkrankheiten kann auch durch Ermittlung der Anzahl von menschlichen Keratinocyten, von verhornten Plattenepithelzellen und von Plattenepithel-Karzinomzellenlinien (SCC-115), die sich in Gegenwart der besagten Verbindungen bilden.
# (§2) Die Resultate sind in den Tabellen 4 und 5 angegeben: Tabelle 4
# [2] = system: menschlicher promyelocytischer Tumorzellen HL-60; test: Differentiation-inducing (DI) effect on HL-60 cells; settings: for EC50: Homo sapiens, concentration that causes 50% differentiation of the cells, read-out: ED50 (the source's name)
# Source text: (§3) Zum Nachweis der Aktivität der Verbindungen der Formel I als Mittel zur Behandlung von neoplastischen Krankheiten wurden die antiproliferativen (AP) und die Differenzierung induzierenden Effekte (DI) der Verbindungen A bis F sowie die Anzahl menschlicher promyelocytischer Tumorzellen HL-60 ermittelt. In Tabelle 6 ist der AP Effekt als prozentuale Reduktion der Anzahl Zellen und als Konzentration ID₅₀, die die Zellenanzahl um 50% reduziert, angegeben. Der DI Effekt ist angegeben als Prozentsatz der differenzierten Zellen und als Konzentration ED₅₀ der Verbindungen, die eine 50%ige Differenzierung der Zellen bewirkt.
# [3] = system: gezüchteten menschlichen Keratinocyten; test: Morphological differentiation of cultured human keratinocytes (cell counts by cell type)
# [4] = system: menschlicher promyelocytischer Tumorzellen HL-60; test: Antiproliferative (AP) effect on HL-60 cells; settings: for IC50: Homo sapiens, concentration that reduces the cell number by 50%, read-out: ID50 (the source's name)
# Source text: as §3
# [5] = system: Plattenepithel-Karzinomzellenlinien (SCC-15); test: Number of squamous carcinoma cell line cells formed in presence of compound
# Source text: as §1, §2
# [6] = Konzentration 0.01 (head prints x10 M)
# [7] = Konzentration 0.1 (head prints x10 M)
# [8] = Konzentration 1 (head prints x10 M)
# [9] = Konzentration 10 (head prints x10 M)
# [10] = Konzentration 100 (head prints x10 M)
EC50 [2],Structure (SMILES),Anzahl Keratinocten (x10⁴) ([1]; Dosis 10⁻¹² M),Anzahl verhornte Plattenepithelzellen (x10²) ([1]; Dosis 10⁻¹² M),Anzahl Keratinocten (x10⁴) ([1]; Dosis 10⁻¹⁰ M),Anzahl verhornte Plattenepithelzellen (x10²) ([1]; Dosis 10⁻¹⁰ M),Anzahl Keratinocten (x10⁴) ([1]; Dosis 10⁻⁶ M),Anzahl verhornte Plattenepithelzellen (x10²) ([1]; Dosis 10⁻⁶ M),Anzahl Keratinocten (x10⁴) ([1]; Dosis 10⁻⁸ M),Anzahl verhornte Plattenepithelzellen (x10²) ([1]; Dosis 10⁻⁸ M),"Differenzierte Zellen (%) [2, 6]","Differenzierte Zellen (%) [2, 7]","Differenzierte Zellen (%) [2, 8]","Differenzierte Zellen (%) [2, 9]",Anzahl Zellen (x10⁴): Basalzellen ([3]; Dosis 10⁻¹⁰ M),Anzahl Zellen (x10⁴): Gesamtanzahl ([3]; Dosis 10⁻¹⁰ M),Anzahl Zellen (x10⁴): Plattenepithelzellen ([3]; Dosis 10⁻¹⁰ M),Anzahl Zellen (x10⁴): verhornte Plattenepithelzellen ([3]; Dosis 10⁻¹⁰ M),Anzahl Zellen (x10⁴): Basalzellen ([3]; Dosis 10⁻⁶ M),Anzahl Zellen (x10⁴): Gesamtanzahl ([3]; Dosis 10⁻⁶ M),Anzahl Zellen (x10⁴): Plattenepithelzellen ([3]; Dosis 10⁻⁶ M),also measured
2 nM,"C=C1/C(=C\C=C2/CCC[C@]3(C)C([C@H](C)CCCC(C)(C)O)=CC[C@@H]23)C[C@@H](O)C[C@@H]1O [Verbindung A, 1,25-Dihydroxy-16-dehydrocholecalciferol]",114.91±10.95 x10⁴,1662.2± 420.1 x10²,130.37±24.32 x10⁴,3973.8± 126.99 x10²,109.22±15.87 x10⁴,8323.5± 157.6 x10²,120.67±16.87 x10⁴,7235.2± 55.5 x10²,3%,16%,92%,97%,115±7 x10⁴,132±8 x10⁴,17±1 x10⁴,27±2 x10⁴,71±5 x10⁴,101±7 x10⁴,30±2 x10⁴,"Differenzierte Zellen (%) [2, 10]: 98%; Anzahl Zellen (x10⁴): verhornte Plattenepithelzellen ([3]; Dosis 10⁻⁶ M): 39±2 x10⁴; Anzahl Zellen (x10⁴): Basalzellen ([3]; Dosis 10⁻⁸ M): 106±8 x10⁴; Anzahl Zellen (x10⁴): Gesamtanzahl ([3]; Dosis 10⁻⁸ M): 128±10 x10⁴; Anzahl Zellen (x10⁴): Plattenepithelzellen ([3]; Dosis 10⁻⁸ M): 22±2 x10⁴; Anzahl Zellen (x10⁴): verhornte Plattenepithelzellen ([3]; Dosis 10⁻⁸ M): 33±2 x10⁴; IC50 [4]: 2 nM; % Reduktion der Anzahl Zellen [4, 6]: 10%; % Reduktion der Anzahl Zellen [4, 7]: 33%; % Reduktion der Anzahl Zellen [4, 8]: 84%; % Reduktion der Anzahl Zellen [4, 9]: 85%; % Reduktion der Anzahl Zellen [4, 10]: 85%"
1 nM,C=C1/C(=C\C=C2/CCC[C@]3(C)C([C@H](C)CC#CC(C)(C)O)=CC[C@@H]23)C[C@@H](O)C[C@@H]1O [Verbindung E],187.36±15.33 x10⁴,1136.63± 383.66 x10²,175.34±10.19 x10⁴,1444.87± 312.47 x10²,41.95± 7.53 x10⁴,1916.83± 887.66 x10²,145.79±15.66 x10⁴,2113.62±1049.33 x10²,9%,50%,96%,98%,63±2 x10⁴,86±4 x10⁴,23±2 x10⁴,114±5 x10⁴,41±1 x10⁴,78±3 x10⁴,27±2 x10⁴,"Anzahl Zellenlinien (SCC-15) (x10⁵) ([5]; Dosis 10⁻¹² M): 6.98±1.68 x10⁵; Anzahl Zellenlinien (SCC-15) (x10⁵) ([5]; Dosis 10⁻¹⁰ M): 5.89±1.58 x10⁵; Anzahl Zellenlinien (SCC-15) (x10⁵) ([5]; Dosis 10⁻⁶ M): 0.40±0.98 x10⁵ and 0.49±0.13 x10⁵; Anzahl Zellenlinien (SCC-15) (x10⁵) ([5]; Dosis 10⁻⁸ M): 5.76±1.53 x10⁵; Anzahl Zellen (x10⁴): verhornte Plattenepithelzellen ([3]; Dosis 10⁻⁶ M): 147±4 x10⁴; Anzahl Zellen (x10⁴): Basalzellen ([3]; Dosis 10⁻⁸ M): 53±2 x10⁴; Anzahl Zellen (x10⁴): Gesamtanzahl ([3]; Dosis 10⁻⁸ M): 82±3 x10⁴; Anzahl Zellen (x10⁴): Plattenepithelzellen ([3]; Dosis 10⁻⁸ M): 29±1 x10⁴; Anzahl Zellen (x10⁴): verhornte Plattenepithelzellen ([3]; Dosis 10⁻⁸ M): 141±5 x10⁴; IC50 [4]: 0.7 nM; % Reduktion der Anzahl Zellen [4, 6]: 6%; % Reduktion der Anzahl Zellen [4, 7]: 59%; % Reduktion der Anzahl Zellen [4, 8]: 80%; % Reduktion der Anzahl Zellen [4, 9]: 81%"
